In publication PMC9299836 (eLife, 2022):
pEC50: −log10 of the molar value. Several values for one entry are separate records, joined by “and”; a condition that tells them apart may be missing. Identical values can stand only once. Like-named read-outs stand apart in the source and are kept apart here.

How the values were obtained:
mGluR2 [1] = biological target: mGluR2 (Mus musculus, UniProt Q14BI2, A548F); assay: Live-cell FRET, azi-CRD (cysteine-rich domain) sensor in HEK293T cells; settings: for Normalized FRET response, Mean (azi-CRD agonist DRC): maximal responses normalized to 1mM glutamate
mGluR2 [2] = biological target: T1, mGluR2 (Mus musculus, UniProt Q14BI2); assay: Live-cell FRET, SNAP-m2 (VFT domain) inter-subunit sensor in HEK293T cells; settings: for Normalized FRET response, Mean (SNAP-m2 agonist DRC): maximal responses normalized to 1mM glutamate;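 for all read-outs here: apparent FRET efficiency from whole-membrane ROIs of single cells, corrected for donor bleed-through and background, ΔFRET as treatment minus pretreatment signal, recorded at room temperature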
mGluR2 [3] = biological target: mGluR2 (Mus musculus, UniProt Q14BI2, INS715F); assay: Live-cell FRET, azi-ECL2 (7TM domain, extracellular loop 2) sensor in HEK293T cells;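 note: Cy3/Cy5 click-labeled sensor, whole-membrane ROIs per cell, apparent FRET after bleed-through correction, ΔFRET as treatment minus pre-treatment signal, at room temperature, at least three biological replicates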
mGluR2 [4] = biological target: T1, mGluR2; assay: Functional calcium imaging, SNAP-mGluR2 (no FLAG-tag) with chimeric G protein Gqo5 in HEK293T cells; assay type: cell-based; parameters: Full length mGluR2 construct with an amber codon (TAG) mutation of amino acid A548 (azi-CRD) or N-terminal SNAP-tag (SNAP-mGluR2); host or cells: HEK293T; settings: for Intracellular Ca2+ response, Mean / Intracellular Ca2+ response: normalized to 1mM glutamate; for Intracellular Ca2+ response: single experiments

T1 sequence (Q14BI2 19-872): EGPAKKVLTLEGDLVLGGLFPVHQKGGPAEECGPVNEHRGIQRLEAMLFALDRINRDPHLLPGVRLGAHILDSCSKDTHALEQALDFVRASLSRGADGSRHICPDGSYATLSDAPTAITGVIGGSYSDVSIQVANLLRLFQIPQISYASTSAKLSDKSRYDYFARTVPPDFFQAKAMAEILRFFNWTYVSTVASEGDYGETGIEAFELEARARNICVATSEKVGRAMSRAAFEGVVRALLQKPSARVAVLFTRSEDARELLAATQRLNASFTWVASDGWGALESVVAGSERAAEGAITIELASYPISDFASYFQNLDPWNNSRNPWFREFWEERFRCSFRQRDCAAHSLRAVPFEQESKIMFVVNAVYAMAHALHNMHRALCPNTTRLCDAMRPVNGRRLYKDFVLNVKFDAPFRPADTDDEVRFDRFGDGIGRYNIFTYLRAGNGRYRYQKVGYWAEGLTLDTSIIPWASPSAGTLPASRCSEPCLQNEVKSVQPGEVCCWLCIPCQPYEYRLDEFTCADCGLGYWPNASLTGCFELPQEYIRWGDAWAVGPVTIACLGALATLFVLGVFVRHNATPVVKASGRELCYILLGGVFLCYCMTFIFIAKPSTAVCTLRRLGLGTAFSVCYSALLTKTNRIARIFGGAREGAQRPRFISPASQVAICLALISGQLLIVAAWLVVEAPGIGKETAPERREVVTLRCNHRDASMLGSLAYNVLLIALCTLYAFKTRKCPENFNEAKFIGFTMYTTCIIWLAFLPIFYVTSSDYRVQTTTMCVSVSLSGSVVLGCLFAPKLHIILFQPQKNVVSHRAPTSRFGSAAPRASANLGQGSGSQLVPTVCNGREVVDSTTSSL
mGluR2 (Mus musculus, UniProt Q14BI2, A548F), sequence (Q14BI2 19-872 A548F): as the sequence (Q14BI2 19-872) above, with A530F counted along it
mGluR2 (Mus musculus, UniProt Q14BI2, INS715F), sequence (Q14BI2 with tags, fused parts or gaps INS715F): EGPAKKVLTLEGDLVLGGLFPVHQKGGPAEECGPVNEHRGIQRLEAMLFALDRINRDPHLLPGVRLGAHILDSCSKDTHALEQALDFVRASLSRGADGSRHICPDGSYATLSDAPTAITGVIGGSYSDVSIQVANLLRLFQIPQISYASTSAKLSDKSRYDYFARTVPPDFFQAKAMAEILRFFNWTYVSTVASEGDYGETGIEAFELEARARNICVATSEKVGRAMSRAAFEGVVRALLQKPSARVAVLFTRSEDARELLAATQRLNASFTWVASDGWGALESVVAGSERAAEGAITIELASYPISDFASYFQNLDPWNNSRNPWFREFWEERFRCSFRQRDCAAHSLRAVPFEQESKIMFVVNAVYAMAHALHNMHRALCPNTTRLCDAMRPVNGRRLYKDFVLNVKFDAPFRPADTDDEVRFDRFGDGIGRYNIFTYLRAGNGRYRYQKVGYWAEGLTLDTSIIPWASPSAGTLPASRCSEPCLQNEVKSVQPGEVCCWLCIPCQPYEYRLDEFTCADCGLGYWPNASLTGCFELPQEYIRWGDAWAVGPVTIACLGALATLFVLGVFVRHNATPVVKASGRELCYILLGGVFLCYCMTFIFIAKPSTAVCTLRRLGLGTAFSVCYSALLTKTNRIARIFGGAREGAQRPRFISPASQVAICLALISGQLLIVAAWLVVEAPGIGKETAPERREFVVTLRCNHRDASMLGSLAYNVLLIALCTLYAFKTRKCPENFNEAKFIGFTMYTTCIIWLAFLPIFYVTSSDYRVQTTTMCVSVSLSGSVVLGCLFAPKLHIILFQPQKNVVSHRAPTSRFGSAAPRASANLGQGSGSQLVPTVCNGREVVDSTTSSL

N[C@H](C(=O)O)C1[C@@H](C(=O)O)[C@@H]1C(=O)O (some centres unmarked) [DCG-IV]
efficacy relative to glutamate efficacy (mGluR2 [1]; CRD sensor): 69% | Hill slope (mGluR2 [1]; azi-CRD sensor, orthosteric agonist alone): 0.94 | Live-cell FRET max response normalized to 1mM glutamate (mGluR2 [1]; azi-CRD sensor, DCG-IV, individual values (N=19)): 0.7559 and 0.727 and 0.7189 and 0.7035 and 0.632 and 0.6169 and 0.7378 and 0.6793 and 0.6073 and 0.6642 and 0.7117 and 0.7276 and 0.6566 and 0.7993 and 0.7099 and 0.6625 and 0.714 and 0.6368 and 0.7062 | Mean max response (normalized max ΔFRET) (mGluR2 [1]; azi-CRD, agonist alone (1 mM glutamate, 100 μM DCG-IV, 20 μM LY379268, 100 μM APDC), normalized to 1 mM glutamate): 0.69 | Normalized Max ΔFRET (mGluR2 [1]; azi-CRD, 100μM agonist, individual cells, normalized to 1mM glutamate): 66.2522 and 61.6858 and 73.7778 and 67.9245 and 60.7306 and 66.4234 and 71.1688 and 72.7619 and 65.6646 and 79.932 and 70.9877 and 71.4032 and 63.6793 and 70.615 and 75.5857 and 72.6994 and 71.8894 and 70.347 and 63.2035 | Normalized Max ΔFRET, Mean (mGluR2 [1]; azi-CRD, 100μM agonist, mean of cells, normalized to 1mM glutamate): 69.3017 | Normalized FRET response, Mean (azi-CRD agonist DRC) (mGluR2 [1]; log[ligand] (M) -4): 0.693 | Normalized FRET response, Mean (azi-CRD agonist DRC) (mGluR2 [1]; log[ligand] (M) -4.1549): 0.638 | Normalized FRET response, Mean (azi-CRD agonist DRC) (mGluR2 [1]; log[ligand] (M) -4.52288): 0.594 | Normalized FRET response, Mean (azi-CRD agonist DRC) (mGluR2 [1]; log[ligand] (M) -5): 0.6438 | Normalized FRET response, Mean (azi-CRD agonist DRC) (mGluR2 [1]; log[ligand] (M) -5.39794): 0.5492 | Normalized FRET response, Mean (azi-CRD agonist DRC) (mGluR2 [1]; log[ligand] (M) -5.82391): 0.4312 | Normalized FRET response, Mean (azi-CRD agonist DRC) (mGluR2 [1]; log[ligand] (M) -6): 0.3274 | Normalized FRET response, Mean (azi-CRD agonist DRC) (mGluR2 [1]; log[ligand] (M) -6.52288): 0.164 | Normalized FRET response, Mean (azi-CRD agonist DRC) (mGluR2 [1]; log[ligand] (M) -7): 0.06087 | Normalized FRET response, Mean (azi-CRD agonist DRC) (mGluR2 [1]; log[ligand] (M) -8): 0 | pEC50 (mGluR2 [1]; read-out: Live-cell FRET titration EC50, azi-CRD, agonist alone, individual experiments): 5.82 and 5.83 and 6.11 and 6.24 and 6.28 and 6.05 and 5.87 and 5.80 and 5.68 | pEC50 (mGluR2 [1]; read-out: Mean half-maximum effective concentration (EC50), azi-CRD sensor, orthosteric agonist alone): 5.96 | Mean max response (normalized max ΔFRET) (mGluR2 [2]; SNAP-m2 (VFT), agonist alone (1 mM glutamate, 100 μM DCG-IV, 20 μM LY379268, 100 μM APDC), normalized to 1 mM glutamate): 0.79 | Normalized Max ΔFRET (mGluR2 [2]; SNAP-m2, 100μM agonist, individual cells, normalized to 1mM glutamate): 84.7663 and 70.8926 and 74.3888 and 73.8095 and 75.8105 and 75.3951 and 75.9881 and 74.211 and 74.4971 and 73.9262 and 75.3591 and 85.075 and 75.8448 and 76.6206 and 81.7136 and 78.0427 and 77.2768 and 74.1653 and 84.8254 and 80.7786 and 86.2145 and 83.3004 and 84.7137 and 86.1165 and 84.7264 | Normalized Max ΔFRET, Mean (mGluR2 [2]; SNAP-m2, 100μM agonist, mean of cells, normalized to 1mM glutamate): 78.7384 | Hill slope (mGluR2 [2]; SNAP-m2 sensor, orthosteric agonist alone): –1.26 | Live-cell FRET max response normalized to 1mM glutamate (mGluR2 [2]; SNAP-m2 sensor, DCG-IV, individual values (N=25)): 0.8621 and 0.833 and 0.8471 and 0.8612 and 0.8473 and 0.7089 and 0.7439 and 0.7381 and 0.7581 and 0.754 and 0.7599 and 0.7421 and 0.745 and 0.7393 and 0.7536 and 0.7584 and 0.7662 and 0.8171 and 0.7804 and 0.7728 and 0.7417 and 0.8477 and 0.8508 and 0.8482 and 0.8078 | efficacy relative to glutamate efficacy (mGluR2 [2]; VFT domain FRET sensor): 79% | Normalized FRET response, Mean (SNAP-m2 agonist DRC) (mGluR2 [2]; log[ligand] (M) -4): -0.7874 | Normalized FRET response, Mean (SNAP-m2 agonist DRC) (mGluR2 [2]; log[ligand] (M) -4.52288): -0.8342 | Normalized FRET response, Mean (SNAP-m2 agonist DRC) (mGluR2 [2]; log[ligand] (M) -5): -0.8388 | Normalized FRET response, Mean (SNAP-m2 agonist DRC) (mGluR2 [2]; log[ligand] (M) -5.39794): -0.8023 | Normalized FRET response, Mean (SNAP-m2 agonist DRC) (mGluR2 [2]; log[ligand] (M) -5.82391): -0.7016 | Normalized FRET response, Mean (SNAP-m2 agonist DRC) (mGluR2 [2]; log[ligand] (M) -6.09691): -0.5309 | Normalized FRET response, Mean (SNAP-m2 agonist DRC) (mGluR2 [2]; log[ligand] (M) -6.52288): -0.3457 | Normalized FRET response, Mean (SNAP-m2 agonist DRC) (mGluR2 [2]; log[ligand] (M) -7): -0.1181 | Normalized FRET response, Mean (SNAP-m2 agonist DRC) (mGluR2 [2]; log[ligand] (M) -7.30103): -0.04846 | Normalized FRET response, Mean (SNAP-m2 agonist DRC) (mGluR2 [2]; log[ligand] (M) -7.69897): 0 | pEC50 (mGluR2 [2]; read-out: Live-cell FRET titration EC50, SNAP-m2, agonist alone, individual experiments): 6.22 and 6.20 and 6.55 and 6.50 and 6.53 and 6.49 | pEC50 (mGluR2 [2]; read-out: Mean half-maximum effective concentration (EC50), SNAP-m2 sensor, orthosteric agonist alone): 6.40 | efficacy relative to glutamate efficacy (mGluR2 [3]; ECL2 sensor): 64% | Mean max response (normalized max ΔFRET) (mGluR2 [3]; azi-ECL2, agonist alone (1 mM glutamate, 100 μM DCG-IV, 20 μM LY379268, 100 μM APDC), normalized to 1 mM glutamate): 0.64 | Normalized ΔFRET response, Mean (agonist DRC) (mGluR2 [3]; azi-ECL2, log[agonist] (M) -4, normalized to 1 mM glutamate): 0.6388 | Normalized ΔFRET response, Mean (agonist DRC) (mGluR2 [3]; azi-ECL2, log[agonist] (M) -4.52288, normalized to 1 mM glutamate): 0.6117 | Normalized ΔFRET response, Mean (agonist DRC) (mGluR2 [3]; azi-ECL2, log[agonist] (M) -5, normalized to 1 mM glutamate): 0.5883 | Normalized ΔFRET response, Mean (agonist DRC) (mGluR2 [3]; azi-ECL2, log[agonist] (M) -5.39794, normalized to 1 mM glutamate): 0.5288 | Normalized ΔFRET response, Mean (agonist DRC) (mGluR2 [3]; azi-ECL2, log[agonist] (M) -5.82391, normalized to 1 mM glutamate): 0.4325 | Normalized ΔFRET response, Mean (agonist DRC) (mGluR2 [3]; azi-ECL2, log[agonist] (M) -6.09691, normalized to 1 mM glutamate): 0.3472 | Normalized ΔFRET response, Mean (agonist DRC) (mGluR2 [3]; azi-ECL2, log[agonist] (M) -6.52288, normalized to 1 mM glutamate): 0.1978 | Normalized ΔFRET response, Mean (agonist DRC) (mGluR2 [3]; azi-ECL2, log[agonist] (M) -7, normalized to 1 mM glutamate): 0.04555 | Normalized ΔFRET response, Mean (agonist DRC) (mGluR2 [3]; azi-ECL2, log[agonist] (M) -7.30103, normalized to 1 mM glutamate): 0.01237 | Normalized ΔFRET response, Mean (agonist DRC) (mGluR2 [3]; azi-ECL2, log[agonist] (M) -7.69897, normalized to 1 mM glutamate): 0 | Normalized Max ΔFRET (mGluR2 [3]; azi-ECL2, 100μM agonist, individual cells, normalized to 1mM glutamate): 75.6239 and 62.1009 and 89.9691 and 84.6273 and 55.3373 and 55.3387 and 55.3355 and 62.696 and 49.3687 and 57.2855 and 56.6756 and 63.6013 and 56.6982 and 53.3737 and 53.7969 and 61.9848 and 59.9837 and 58.1516 and 63.6225 and 66.6797 and 61.402 and 83.697 and 67.4032 and 68.3214 and 74.0066 | Normalized Max ΔFRET, Mean (mGluR2 [3]; azi-ECL2, 100μM agonist, mean of cells, normalized to 1mM glutamate): 63.8832 | Hill slope (mGluR2 [3]; azi-ECL2 sensor, orthosteric agonist alone): 1.05 | Live-cell FRET max response normalized to 1mM glutamate (mGluR2 [3]; azi-ECL2 sensor, DCG-IV, individual values (N=25)): 0.614 and 0.837 and 0.674 and 0.6832 and 0.7401 and 0.621 and 0.8997 and 0.8463 and 0.5534 (3×) and 0.627 and 0.4937 and 0.5728 and 0.5668 and 0.567 and 0.5337 and 0.538 and 0.6199 and 0.5998 and 0.5815 and 0.7562 and 0.636 and 0.6362 and 0.6668 | pEC50 (mGluR2 [3]; read-out: EC50, live-cell FRET titration, azi-ECL2 sensor, DCG-IV, individual cell values (N=24)): 6.39 and 5.80 and 5.68 and 5.69 and 5.78 and 5.82 and 5.73 and 5.93 and 6.25 and 6.49 and 6.40 and 6.55 and 6.35 and 6.44 and 6.20 and 6.52 and 6.34 and 6.38 and 6.41 | pEC50 (mGluR2 [3]; read-out: Mean half-maximum effective concentration (EC50), azi-ECL2 sensor, orthosteric agonist alone): 6.05 | Normalized Max Intracellular Ca2+ Response, individual experiments (mGluR2 [4]; 100 μM DCG-IV, 10 μM LY379268, 300 μM APDC, normalized to 1 mM glutamate, single replicate): 0.684 and 0.6918 and 0.7087 | Normalized Max Intracellular Ca2+ Response, mean (mGluR2 [4]; 1 mM Glu, 100 μM DCG-IV, 10 μM LY379268, 300 μM APDC, normalized to 1 mM glutamate): 0.6948 | efficacy relative to glutamate efficacy (mGluR2 [4]; functional calcium imaging assay): 69% | Intracellular Ca2+ response, Mean (mGluR2 [4]; log[agonist] (M) -4): 0.6948 | Intracellular Ca2+ response (mGluR2 [4]; log[agonist] (M) -4): 0.6948 | Intracellular Ca2+ response, Mean (mGluR2 [4]; log[agonist] (M) -4.52288): 0.7042 | Intracellular Ca2+ response (mGluR2 [4]; log[agonist] (M) -4.52288): 0.7332 and 0.6724 and 0.7069 | Intracellular Ca2+ response, Mean (mGluR2 [4]; log[agonist] (M) -5): 0.632 | Intracellular Ca2+ response (mGluR2 [4]; log[agonist] (M) -5): 0.631 and 0.6318 and 0.6332 | Intracellular Ca2+ response, Mean (mGluR2 [4]; log[agonist] (M) -5.39794): 0.5754 | Intracellular Ca2+ response (mGluR2 [4]; log[agonist] (M) -5.39794): 0.5417 and 0.5882 and 0.5962 | Intracellular Ca2+ response, Mean (mGluR2 [4]; log[agonist] (M) -5.82391): 0.3655 | Intracellular Ca2+ response (mGluR2 [4]; log[agonist] (M) -5.82391): 0.2777 and 0.362 and 0.4567 | Intracellular Ca2+ response, Mean (mGluR2 [4]; log[agonist] (M) -6): 0.3093 | Intracellular Ca2+ response (mGluR2 [4]; log[agonist] (M) -6): 0.2196 and 0.3072 and 0.4011 | Intracellular Ca2+ response, Mean (mGluR2 [4]; log[agonist] (M) -6.52288): 0.06286 | Intracellular Ca2+ response, Mean (mGluR2 [4]; log[agonist] (M) -7): 0 | Intracellular Ca2+ response (mGluR2 [4]; log[agonist] (M) -7): 0 | Intracellular Ca2+ response, Mean (mGluR2 [4]; log[agonist] (M) -8): 0 | Intracellular Ca2+ response (mGluR2 [4]; log[agonist] (M) -8): 0
